Measured values published in ChEMBL document CHEMBL1144039, “Antioxidant capacity of BO-653, 2,3-dihydro-5-hydroxy-4,6-di-tert-butyl-2,2-dipentylbenzofuran, and uric acid as evaluated by ORAC method and inhibition of lipid peroxidation” (2008).

What was measured:
[1] = Antioxidant activity assessed as oxygen radical scavenging activity in presence of human plasma by ORAC method relative to control; assay type: functional, cell-free
Plasma = experiment: Antioxidant activity in human plasma assessed as inhibition of cholesteryl ester hydroperoxide formation after 60 mins relative to control; assay type: functional

| SMILES | Ratio AUC [1] | Ratio (Plasma) |
| --- | --- | --- |
| CCCCCC1(CCCCC)Cc2c(cc(C(C)(C)C)c(O)c2C(C)(C)C)O1 [BO-653] | 1.23 | 0.23 |
| Oc1nc(O)c2nc(O)[nH]c2n1 [URIC ACID] | 1.52 | 0.78 |
